Measurements published in ChEMBL document CHEMBL4613212, “Insights of synthetic analogues of anti-leprosy agents” (Bioorg Med Chem, 2019).
In brackets after ≈: the same amount, converted by molar mass.

Columns and labels:
[1] = tested on: Mycobacterium tuberculosis; assay: Antitubercular activity against Mycobacterium tuberculosis H37Rv ATCC 27294 assessed as inhibition of [3H]-thymidine incorporation at 1 ug/ml relative to control; type: functional
Mycobacterium leprae [2] = assay: Anti-leprotic activity against Mycobacterium leprae infected in BALB/c mouse assessed as time delay in bacterial multiplication in footpad at 0.008 g/100g of diet administered via feed starting 60 or 75 day post infection up to 90 days by Shepard's kinetic method; type: functional
Mycobacterium leprae [3] = assay: Anti-leprotic activity against rifampicin-susceptible Mycobacterium leprae subcultures at 4 weeks assessed as ATP level per 10^7 cells at 0.2 mg/L measured by bioluminescence assay (reference value: 425 +/- 64 pg); type: functional
Mycobacterium leprae [4] = assay: Anti-leprotic activity against rifampicin-susceptible Mycobacterium leprae subcultures at 4 weeks assessed as ATP level per 10^7 cells at 0.025 mg/L measured by bioluminescence assay (reference value: 425 +/- 64 pg); type: functional
Mycobacterium leprae [5] = assay: Anti-leprotic activity against rifampicin-susceptible Mycobacterium leprae primary cultures at 4 weeks assessed as ATP level per 10^7 cells at 0.05 mg/L measured by bioluminescence assay (reference value: 332 +/- 46 pg); type: functional
Mycobacterium leprae [6] = assay: Anti-leprotic activity against rifampicin-susceptible Mycobacterium leprae primary cultures at 4 weeks assessed as ATP level per 10^7 cells at 0.025 mg/L measured by bioluminescence assay (reference value: 332 +/- 46 pg); type: functional
Mycobacterium leprae [7] = assay: Anti-leprotic activity against rifampicin-susceptible Mycobacterium leprae subcultures at 4 weeks assessed as ATP level per 10^7 cells at 0.1 mg/L measured by bioluminescence assay (reference value: 425 +/- 64 pg); type: functional
Mycobacterium leprae [8] = assay: Anti-leprotic activity against rifampicin-susceptible Mycobacterium leprae subcultures at 4 weeks assessed as ATP level per 10^7 cells at 0.05 mg/L measured by bioluminescence assay (reference value: 425 +/- 64 pg); type: functional
Mycobacterium leprae [9] = assay: Anti-leprotic activity against rifampicin-susceptible Mycobacterium leprae primary cultures at 4 weeks assessed as ATP level per 10^7 cells at 0.1 mg/L measured by bioluminescence assay (reference value: 332 +/- 46 pg); type: functional
Mycobacterium leprae [10] = assay: Anti-leprotic activity against rifampicin-susceptible Mycobacterium leprae primary cultures at 4 weeks assessed as ATP level per 10^7 cells at 0.2 mg/L measured by bioluminescence assay (reference value: 332 +/- 46 pg); type: functional
Mycobacterium leprae [11] = assay: Anti-leprotic activity against rifampicin-susceptible Mycobacterium leprae primary cultures at 4 weeks assessed as [3H]thymidine uptake per 5 times 10^7 cells at 0.025 mg/L incubated for 24 hrs (reference value: 1.05 +/- 0.16 pmol); type: functional
Mycobacterium leprae [12] = assay: Anti-leprotic activity against rifampicin-susceptible Mycobacterium leprae primary cultures at 4 weeks assessed as [3H]thymidine uptake per 5 times 10^7 cells at 0.05 mg/L incubated for 24 hrs (reference value: 1.05 +/- 0.16 pmol); type: functional
Mycobacterium leprae [13] = assay: Anti-leprotic activity against rifampicin-susceptible Mycobacterium leprae primary cultures at 4 weeks assessed as [3H]thymidine uptake per 5 times 10^7 cells at 0.1 mg/L incubated for 24 hrs (reference value: 1.05 +/- 0.16 pmol); type: functional
Mycobacterium leprae [14] = assay: Anti-leprotic activity against rifampicin-susceptible Mycobacterium leprae primary cultures at 4 weeks assessed as [3H]thymidine uptake per 5 times 10^7 cells at 0.2 mg/L incubated for 24 hrs (reference value: 1.05 +/- 0.16 pmol); type: functional
Mycobacterium leprae [15] = assay: Anti-leprotic activity against rifampicin-susceptible Mycobacterium leprae subcultures at 4 weeks assessed as [3H]thymidine uptake per 5 times 10^7 cells at 0.025 mg/L incubated for 24 hrs (reference value: 1.41 +/- 0.20 pmol); type: functional
Mycobacterium leprae [16] = assay: Anti-leprotic activity against rifampicin-susceptible Mycobacterium leprae subcultures at 4 weeks assessed as [3H]thymidine uptake per 5 times 10^7 cells at 0.05 mg/L incubated for 24 hrs (reference value: 1.41 +/- 0.20 pmol); type: functional
Mycobacterium leprae [17] = assay: Anti-leprotic activity against rifampicin-susceptible Mycobacterium leprae subcultures at 4 weeks assessed as [3H]thymidine uptake per 5 times 10^7 cells at 0.1 mg/L incubated for 24 hrs (reference value: 1.41 +/- 0.20 pmol); type: functional
Mycobacterium leprae [18] = assay: Anti-leprotic activity against rifampicin-susceptible Mycobacterium leprae subcultures at 4 weeks assessed as [3H]thymidine uptake per 5 times 10^7 cells at 0.2 mg/L incubated for 24 hrs (reference value: 1.41 +/- 0.20 pmol); type: functional
[19] = Plasma concentration in rifampin-susceptible Mycobacterium leprae infected in BALB/c mouse at 6 mg/kg administered with food daily for 1 week by high-pressure liquid chromatography analysis; type: ADME, organism-based; conditions: po
[20] = Plasma concentration in rifampin-susceptible Mycobacterium leprae infected in BALB/c mouse at 6 mg/kg administered with food daily for 2 weeks by high-pressure liquid chromatography analysis; type: ADME, organism-based; conditions: po
[21] = Plasma concentration in rifampin-susceptible Mycobacterium leprae infected in BALB/c mouse at 6 mg/kg administered with food daily for 4 weeks by high-pressure liquid chromatography analysis; type: ADME, organism-based; conditions: po
[22] = tested on: Mycobacterium tuberculosis; assay: Antitubercular activity against Mycobacterium tuberculosis H37Rv ATCC 27294 assessed as growth inhibition at 6.25 ug/ml by microplate alamar blue assay relative to control; type: functional
[23] = Selectivity index, ratio of IC50 for African green monkey Vero cells to MIC for antitubercular activity against Mycobacterium tuberculosis H37Rv; type: toxicity; conditions: Vero cells, read-out: Selectivity Index
Mycobacterium leprae [24] = assay: Anti-leprotic activity against Mycobacterium leprae infected in BALB/c weanling mouse assessed as bacteria killing at 100 mg/kg, ip administrated for 60 days and measured after 1 year by most probable number technique analysis relative to control; type: functional
Mycobacterium leprae [25] = assay: Anti-leprotic activity against Mycobacterium leprae infected in BALB/c weanling mouse assessed as bacteria killing at 100 mg/kg, ip administrated for 60 days and measured after 1 year by Spearman-Karber technique analysis relative to control; type: functional
[26] = tested on: Mycobacterium tuberculosis; assay: Antimycobacterial activity against Mycobacterium tuberculosis H37Rv infected in CF-1 mouse assessed as change in survival time at 5 mg/kg administrated daily for 14 days with food relative to control; type: functional
[27] = tested on: Mycobacterium tuberculosis; assay: Antimycobacterial activity against Mycobacterium tuberculosis H37Rv infected in CF-1 mouse assessed as change in survival time at 11 mg/kg administrated daily for 14 days with food relative to control; type: functional
[28] = tested on: Mycobacterium tuberculosis; assay: Antimycobacterial activity against Mycobacterium tuberculosis H37Rv infected in CF-1 mouse assessed as change in survival time at 3 mg/kg administrated daily for 14 days with food relative to control; type: functional
Enterococcus faecalis [29] = assay: Antimicrobial activity against Enterococcus faecalis ATCC 29212 by broth microdilution assay; type: functional
Staphylococcus aureus = assay: Antimicrobial activity against Staphylococcus aureus ATCC 25923 by broth microdilution assay; type: functional
Enterococcus faecalis [30] = assay: Antimicrobial activity against Enterococcus faecalis ATCC 51922 by broth microdilution assay; type: functional
Listeria monocytogenes = assay: Antimicrobial activity against Listeria monocytogenes ATCC 1911 by broth microdilution assay; type: functional
Klebsiella pneumoniae = assay: Antimicrobial activity against Klebsiella pneumoniae 700603 by broth microdilution assay; type: functional
Pseudomonas aeruginosa = assay: Antimicrobial activity against Pseudomonas aeruginosa ATCC 27853 by broth microdilution assay; type: functional
Escherichia coli [31] = assay: Antimicrobial activity against Escherichia coli ATCC 35218 by broth microdilution assay; type: functional
Escherichia coli [32] = assay: Antimicrobial activity against Escherichia coli ATCC 25922 by broth microdilution assay; type: functional
[33] = tested on: Mycobacterium tuberculosis; assay: Antitubercular activity against Mycobacterium tuberculosis H37Rv ATCC 27294 incubated for 7 days by microplate alamar blue assay; type: functional; conditions: H37Rv ATCC 27294, 168 h
Nakaseomyces glabratus = assay: Antifungal activity against Candida glabrata; type: functional

## c1ccc(Cn2cnc3c(-c4ccccc4)ncnc32)cc1
[1]
  inhibition at 1 µg/mL: < 10%

## Nc1ccc(Cc2ccc(N)cc2)cc1
Mycobacterium leprae [2]
  Time: <10 days

## CO[C@H]1/C=C/O[C@@]2(C)Oc3c(C)c(O)c4c(=O)c(c5oc6cc(N7CCN(CC(C)C)CC7)cc(O)c6nc-5c4c3C2=O)NC(=O)/C(C)=C\C=C\[C@H](C)[C@H](O)[C@@H](C)[C@@H](O)[C@@H](C)[C@H](OC(C)=O)[C@@H]1C [RIFALAZIL]
Mycobacterium leprae [3]
  Activity: 0 pg
Mycobacterium leprae [4]
  Activity: 211 pg
Mycobacterium leprae [5]
  Activity: 0 pg
Mycobacterium leprae [6]
  Activity: 227 pg
Mycobacterium leprae [7]
  Activity: 0 pg
Mycobacterium leprae [8]
  Activity: 0 pg
Mycobacterium leprae [9]
  Activity: 0 pg
Mycobacterium leprae [10]
  Activity: 0 pg
Mycobacterium leprae [11]
  Activity: 0.72 pmol
Mycobacterium leprae [12]
  Activity: 0 pmol
Mycobacterium leprae [13]
  Activity: 0 pmol
Mycobacterium leprae [14]
  Activity: 0 pmol
Mycobacterium leprae [15]
  Activity: 0.73 pmol
Mycobacterium leprae [16]
  Activity: 0 pmol
Mycobacterium leprae [17]
  Activity: 0 pmol
Mycobacterium leprae [18]
  Activity: 0 pmol

## OO [HYDROGEN PEROXIDE]
[19]
  concentration at 168 h: 0.042 µg/mL
[20]
  concentration at 336 h: 0.05 µg/mL
[21]
  concentration at 672 h: 0.055 µg/mL

## c1ccc(Cn2cnc3c(-c4cccs4)ncnc32)cc1
[22]
  inhibition at 6.25 µg/mL: > 90%
[23]
  selectivity ratio: > 1.6
[1]
  inhibition at 1 µg/mL: < 10%

## NCC[C@H](O)C(=O)N[C@@H]1C[C@H](N)[C@@H](O[C@H]2O[C@H](CN)[C@@H](O)[C@H](O)[C@H]2O)[C@H](O)[C@H]1O[C@H]1O[C@H](CO)[C@@H](O)[C@H](N)[C@H]1O [AMIKACIN]
Mycobacterium leprae [24]
  Activity: 97.3%
Mycobacterium leprae [25]
  Activity: 96%

## CCC(C)N1CCN(c2cc(O)c3nc4c5c6c7c(C)c(O)c5c(=O)c(c-4oc3c2)NC(=O)/C(C)=C\C=C\[C@H](C)[C@H](O)[C@@H](C)[C@@H](O)[C@@H](C)[C@H](OC(C)=O)[C@H](C)[C@@H](OC)/C=C/O[C@@](C)(O7)C6=O)CC1 (stereo in doubt; form 2)
Mycobacterium leprae [3]
  Activity: 0 pg
Mycobacterium leprae [4]
  Activity: 363 pg
Mycobacterium leprae [5]
  Activity: 233 pg
Mycobacterium leprae [6]
  Activity: 298 pg
Mycobacterium leprae [7]
  Activity: 0 pg
Mycobacterium leprae [8]
  Activity: 221 pg
Mycobacterium leprae [9]
  Activity: 0 pg
Mycobacterium leprae [10]
  Activity: 0 pg
Mycobacterium leprae [11]
  Activity: 0.298 pmol
Mycobacterium leprae [12]
  Activity: 0.77 pmol
Mycobacterium leprae [13]
  Activity: 0 pmol
Mycobacterium leprae [14]
  Activity: 0 pmol
Mycobacterium leprae [15]
  Activity: 0 pmol
Mycobacterium leprae [16]
  Activity: 1.28 pmol
Mycobacterium leprae [17]
  Activity: 0.76 pmol
Mycobacterium leprae [18]
  Activity: 0 pmol

## Brc1ccc(/N=N/c2ccc(NCCCN3CCCCC3)c3c2CCCC3)cc1
[26]
  MST: 19 days
[27]
  MST: 38 days
[28]
  MST: 11 days

## O=[N+]([O-])c1ccc(/C=N/NC(=S)Nc2ccc(C(F)(F)F)cc2)cc1
Enterococcus faecalis [29]
  MIC: 100 mg/L (≈ 271 µM)
Staphylococcus aureus
  MIC: 400 mg/L (≈ 1090 µM)
Enterococcus faecalis [30]
  MIC: 400 mg/L (≈ 1090 µM)
Listeria monocytogenes
  MIC: 400 mg/L (≈ 1090 µM)
Klebsiella pneumoniae
  MIC: 400 mg/L (≈ 1090 µM)
Pseudomonas aeruginosa
  MIC: 400 mg/L (≈ 1090 µM)
Escherichia coli [31]
  MIC: 400 mg/L (≈ 1090 µM)
Escherichia coli [32]
  MIC: 400 mg/L (≈ 1090 µM)
[33]
  MIC: 400 mg/L (≈ 1090 µM)
Nakaseomyces glabratus
  MIC: 200 mg/L (≈ 543 µM)
